Data as given in patent US20070087364A1, “In vitro erythroid micronucleus assay for genotoxicity” (Massachusetts Institute of Technology, priority 2005, published 2007).
Entries after “also recorded” stand apart in the source; their conditions may differ.

How the values were obtained:
[1] = test system: MGMT^−/− Lin^− BM; assay: in vitro erythroid micronucleus assay, MGMT−/− Lin− bone marrow; details: introduced 10 h, 23 h or 30 h after seeding, harvest 72 h
[2] = test system: bone marrow; details: dose concentrations up to 20 μM, in vitro dosing (Glassner 1999); cited from earlier work
[3] = test system: Lin^− fraction of C57BL/6J (mouse) BM; assay: in vitro erythroid micronucleus assay, erythropoietic culture of wild-type Lin− bone marrow
[4] = bolus injection of 25 mg/kg, cited from earlier work
[5] = test system: bone marrow PCEs (reticulocytes); details: mouse; cited from earlier work

Row | Compound | MN frequency, MGMT−/− vs wild-type cultures ([1]; 10 μM and 20 μM doses) | cell survival (growth inhibition), MGMT−/− vs wild-type cultures [1] | cell survival as measured by colony assay [2] | MN frequency in the PCE population (MN-PCE frequency) ([3]; 20 μM introduced 7 hours after seeding, harvest after 72 hours, vs vehicle control) | cell killing and MN formation ([3]; MGMT+/+ BM cultures treated 4 h after culture initiation (data not shown)) | peak plasma concentration ([4]; after 1 minute (Meulemans 1989)) | plasma level ([4]; within the next 15 minutes (Meulemans 1989)) | result in the in vivo MN assay [5]
1 | O=NN(CCCl)C(=O)NCCCl [BCNU, 1,3-bis (2-chloroethyl) -1-nitrosourea] | significant increases in MN frequency; also recorded: more sensitive to growth-inhibition and MN-formation | decreased cell survival | ~100% | provides a clear signal of genotoxicity; also recorded: significantly different than those exposed to vehicle control alone; also recorded: an increase in the frequency of MN-PCEs | cell-killing dominated and very little MN formation was observed | ~0.4 mM | approximately 40 μM | 
2 | COS(C)(=O)=O [MMS, methylmethane sulfonate] |  |  |  |  |  |  |  | test positive
